Assay results: patent publication US20210145930A1, “MULTIPLE LAYER ARTICLE WITH INTERACTIVE REINFORCEMENTS LINEAR RIBBON FIBER REINFORCEMENT FOR COMPOSITE FORMS” (NeuroTheranostics, Inc., priority 2018, published 2021)
No end group written: not given here.

What was measured:
Type in all cases: in vivo, Sprague-Dawley rats
[1] = test system: rats with mild-moderate TBI; assay: BrdU/MAP-2 double fluorescence staining, neurogenesis after controlled cortical impact TBI; settings: 3 mg/kg i.v. at 24 h and 48 h post injury; 25 days post injury; vs saline controls, p<0.05, n=7
From the text: (§1) A large part of the functional recovery that occurs after brain injury is due to neurogenesis, and brain plasticity caused by anatomical and functional reorganization of the CNS. To determine the effect of SEQ ID NO. 5 on neurogenesis, the brain blocks containing the hippocampus were processed for vibratome sections (100 μm) followed by double fluorescence staining for endogenous cellular proliferation {BrdU positive cells (red) and MAP 2 (green) to identify newborn neurons in the ipsilateral dentate gyrus (DG) of the hippocampus. Five sections with 100-μm intervals from the dorsal dentate gyms were used for immunohistochemical staining with the same antibody. Sections were blocked in a Tris-buffered saline solution containing 5% normal goat serum, 1% BSA and 0.05% Tween-20. […] Quantitative measurements of immunostaining were performed by an observer blinded to the individual treatment status of the animals. […] The cells with BrdU that clearly localized to the nucleus were counted as BrdU-positive cells. […] The fluorescent images were analyzed with a Bio-Rad MRC 1024 (argon and krypton) laser-scanning confocal imaging system mounted onto a Zeiss microscope (Bio-Rad, Cambridge, Mass.). […]
A controlled cortical impact (CCI) device was used to induce mild-moderate TBI. […] Velocity was measured with a linear velocity displacement transducer. […]

[2] = test system: rats with mild-moderate TBI; assay: Endothelial barrier antigen (EBA) staining, vascular density after controlled cortical impact TBI; settings: 3 mg/kg i.v. at 24 h and 48 h post injury; 25 days after TBI; vs saline-treated rats, p<0.05, n=7
From the text: as §1, with “antibody.” for “antibody. Sections were blocked in a Tris-buffered saline solution containing 5% normal goat serum, 1% BSA and 0.05% Tween-20.”
Endothelial barrier antigen (EBA)-staining has been used to identify vascular structure in the brain after ischemic brain injury. […] 5-therapy on vessel proliferation and vascular density, quantitative measurement of Endothelial Barrier Antigen (EBA) staining was performed. […]

[3] = test system: rats with mild-moderate TBI; assay: BrdU immunostaining, cell proliferation after controlled cortical impact TBI; settings: 3 mg/kg i.v. at 24 h and 48 h post injury; examined 25 days after TBI; vs saline controls, p<0.05, n=7
Method: BrdU, an analog of thymidine, can be incorporated into the newly synthesized DNA of replicating cells during the S phase of the cell cycle, substituting for thymidine during DNA replication. BrdU immunostaining is commonly used to detect cell proliferation. To determine the effect of SEQ ID NO. 5 (3 mg/kg, i.v.) or saline on cell proliferation, BrdU (100mg/kg) was injected i.p. daily starting at day 1 after mild-moderate TBI and continued for 10 days after TBI to label newly generated cells. Twenty-five days after TBI, the animals were anesthetized and sacrificed. The brains were fixed in 4% paraformaldehyde and cut into seven equally spaced 2-mm coronal blocks using a rat brain matrix. […] 5-treated rats examined at 25 days after TBI, compared to the saline controls. […]
A large part of the functional recovery that occurs after brain injury is due to neurogenesis, and brain plasticity caused by anatomical and functional reorganization of the CNS. […] 5 on neurogenesis, the brain blocks containing the hippocampus were processed for vibratome sections (100 μm) followed by double fluorescence staining for endogenous cellular proliferation {BrdU positive cells (red) and MAP 2 (green) to identify newborn neurons in the ipsilateral dentate gyrus (DG) of the hippocampus. […] Quantitative measurements of immunostaining were performed by an observer blinded to the individual treatment status of the animals. […]

[4] = test system: rats with mild-moderate TBI; assay: Modified neurological severity score (mNSS) after controlled cortical impact TBI; settings: 3 mg/kg i.v. at 24 h and 48 h post injury; Days 14-25 after TBI; vs saline-treated group, P<0.05
Method: (§2) A controlled cortical impact (CCI) device was used to induce mild-moderate TBI. Adult male (280-300 g) Sprague-Dawley rats (Harlan: Indianapolis, Ind.) were anesthetized intraperitoneally with xylazine (10 mg/kg body weight) and ketamine (40 mg/kg body weight). Rectal temperature was maintained at 37° C. using a feedback-regulated water-heating pad. The surgical area of the skull was prepared using germicidal povidone-iodine scrub followed by a 70% isopropyl alcohol rinse combinations, being careful to scrub from the center of the surgical site toward the periphery. Rats were placed in a stereotactic frame. […] Velocity was measured with a linear velocity displacement transducer. […] Neurological functional outcome was measured by the modified neurological severity score (mNSS), Morris Water Maze (MWM) and foot-fault test. mNSS is a composite of the motor (muscle status, abnormal movement), sensory (visual, tactile and proprioceptive) and reflex tests. […] If the animal reached the platform within 90 sec, the percentage of time traveled within the NE (correct) quadrant was calculated relative to the total amount of time spent swimming before reaching the platform and employed for statistical analysis. […] Rats were monitored continuously while in the tank. […] When animals inaccurately place a limb, the limb falls through one of the openings in the grid, which is counted as a foot fault. […]

[5] = test system: rats with mild-moderate TBI; assay: Modified foot-fault test after controlled cortical impact TBI; settings: 3 mg/kg i.v. at 24 h and 48 h post injury; up to 25 days after TBI; vs control group
Method: as §2

[6] = test system: rats with mild-moderate TBI; assay: Morris Water Maze (MWM) after controlled cortical impact TBI; settings: 3 mg/kg i.v. at 24 h and 48 h post injury; Days 23 to 25 post-injury; vs saline-treated group, P<0.05
Method: as §2

For “DPMSSTYIEELGKREVTIPPKYVALLPAVLLALLAP [SEQ ID NO. 5]”, the “number of newborn neurons (BrdU/MAP-2 positive) in the ipsilateral DG, per mm^2” value [1] was “significantly increased”, the “density (vessels/mm2) of EBA positive vessels in the injured cortex area” value [2] was “significantly increased” and the “number of BrdU-positive cells in the ipsilateral cortex and hippocampus” value [3] was “significantly increased”. For the same sequence, the “sensorimotor scores (mNSS)” value [4] was “significantly improved”, the “neurological function assessed by the footfault test” value [5] was “no significant improvement” and the “spatial learning and memory retention (percentage of time spent in the correct quadrant, MWM)” value [6] was “significant improvement”.
